The text below walks through data of US8101768B2, “Cyclic amine compound and pest control agent” (Nippon Soda Co., Ltd., priority 2004, dated 2012).

The test system of the assay is organophosphorous agent resistant two-spotted spider mites. Nature of the assay: Effect on Two-spotted Spider Mite (spray on kidney bean leaves). The format is in vivo. As to conditions: 125 ppm, water dispersible powder of Formulation Example 1 sprayed, 17 female adults, 25° C., 65% humidity, 3 days. The text has this: Effect on Two-spotted Spider Mite
17 female adults of organophosphorous agent resistant two-spotted spider mites were inoculated onto the first leaves of kidney beans seeded onto 3.5 inch pots and germinated 7 to 10 days before, onto which each of liquid agents, diluted with water so as to adjust the respective concentration of the chemical compounds to 125 ppm according to the formulation of the water dispersible powder shown in the aforementioned Formulation Example 1, was sprayed. After they were left in a thermostatic chamber at 25° C. in 65% humidity for 3 days, the rate of killed adults was investigated. The examination was repeated twice. As the results, the following chemical compounds killed 100% of the adults.
For the molecule `O=C(OC1CCOC1)c1cc(C(F)(F)F)ccc1OC1CC2CCC(C1)N2c1ccc(C(F)(F)F)cn1` (stereo not drawn) [2-225], the “rate of killed adults” value is recorded as 100%.

As for `CC1CN=C(c2cc(C(F)(F)F)ccc2OC2CC3CCC(C2)N3c2ccc(C(F)(F)F)cn2)O1` (stereo not drawn) [2-201], the “rate of killed adults” value is recorded as 100%.

On to `CC(F)COc1cc(C(F)(F)F)ccc1OC1CC2CCC(C1)N2c1ccc(C(F)(F)F)cn1` (stereo not drawn) [2-181], for which the “rate of killed adults” value was 100%. In the case of `CCCOc1cc(C(F)(F)F)ccc1OC1CC2CCC(C1)N2c1ccc(C(F)(F)F)c[n+]1[O-]` (stereo not drawn) [2-83, 3α-[2-propoxy-4-(trifluoromethyl)phenoxy]-8-[5-(trifluoromethyl)-2-pyridyl-1-oxy]-8-azabicyclo[3.2.1]octane] it was 100%; in that of `CCCOc1cc(C(F)(F)F)ccc1O[C@@H]1[C@@H]2CC[C@H]1CN(c1ccc(C#N)cn1)C2` [5-96], 100%; in that of `CC(=O)OC(C)COc1cc(C(F)(F)F)ccc1O[C@@H]1[C@@H]2CC[C@H]1CN(c1ccc(C(F)(F)F)cn1)C2` (stereo partly drawn) [5-114], 100%.

As to `COC(C)COc1cc(C(F)(F)F)ccc1OC1CC2CCC(C1)[N+]2([O-])c1ccc(C(F)(F)F)cn1` (stereo not drawn) [2-174], the “rate of killed adults” value amounted to 100%. The figure for `CC(C)S(=O)(=O)Oc1cc(C(F)(F)F)ccc1OC1C2CCC1CN(c1ccc(C(F)(F)F)cn1)C2` (stereo not drawn) [5-164] is 100%. In the case of `CCCOc1cc(C(F)(F)F)ccc1O[C@@H]1[C@@H]2CC[C@H]1CN(c1ccc(C(F)F)cn1)C2` [5-99], the “rate of killed adults” value worked out at 100%. In the case of `CC(O)COc1cc(C(F)(F)F)ccc1OC1CC2CCC(C1)N2c1ccc(C(F)(F)F)cn1` (stereo not drawn) [2-173] it was 100%.

`CC(Cl)COc1cc(C(F)(F)F)ccc1OC1C2CCC1CN(c1ccc(C(F)(F)F)cn1)C2` (stereo not drawn) [5-138]: the “rate of killed adults” value turned out to be 100%.

For `COC(C)CCc1cc(C(F)(F)F)ccc1OC1CC2CCC(C1)N2c1ccc(C(F)(F)F)cn1` (stereo not drawn) [2-192], the “rate of killed adults” value is 100%. The figure for `FC(F)(F)c1ccc(O[C@@H]2[C@@H]3CC[C@H]2CN(c2ccc(C(F)(F)F)cn2)C3)cc1` [5-264] is 100%; for `CCCOc1cc(C(F)(F)F)ccc1O[C@@H]1[C@@H]2CC[C@H]1CN(c1ccc(C=O)cn1)C2` [5-100] it is 100%; for `CCC(C)C(O)c1cc(C(F)(F)F)ccc1OC1CC2CCC(C1)N2c1ccc(C(F)(F)F)cn1` (stereo not drawn) [2-194] it is 100%.

With `COc1cc(C(F)(F)F)ccc1OC1CC2CCC(C1)N2c1ccc(C(F)(F)F)cn1` (stereo not drawn) [2-77, 3α-[2-methoxy-4-(trifluoromethyl)phenoxy]-8-[5-(trifluoromethyl)-2-pyridyl]-8-azabicyclo[3.2.1]octane], the “rate of killed adults” value turned out to be 100%. In the case of `CC(C)(O)COc1cc(C(F)(F)F)ccc1OC1C2CCC1CN(c1ccc(C(F)(F)F)cn1)C2` (stereo not drawn) [5-129] it was 100%. In the case of `CCCNc1cc(C(F)(F)F)ccc1OC1CCN(c2ccc(C(F)(F)F)cn2)CC1` [1-173] it was 100%; in that of `CCCOc1cc(C(F)(F)F)ccc1OC1CC2CCC(C1)N2c1ccc(C)cn1` (stereo not drawn) [2-89], 100%. As for `C=CC(C)OC(=O)c1cc(C(F)(F)F)ccc1OC1CC2CCC(C1)[N+]2([O-])c1ccc(C(F)(F)F)cn1` (stereo not drawn) [2-247], the “rate of killed adults” value was found to be 100%. In the case of `FC(F)(F)c1ccc(N2CC3CCC(C2)C3Oc2ccc(C(F)(F)F)cc2OCc2cccnc2)nc1` (stereo not drawn) [5-211] it was 100%; in that of `CC(C)=COc1cc(C(F)(F)F)ccc1O[C@H]1C[C@H]2CC[C@@H](C1)N2c1ccc(C(F)(F)F)cn1` [2-245, 3α-[2-(2-methylpropenyloxy)-4-(trifluoromethyl)phenoxy]-8-[5-(trifluoromethyl)-2-pyridyl]-8-azabicyclo[3.2.1]octane], 100%.

With `O=C(OCC1CC1)c1cc(C(F)(F)F)ccc1OC1CC2CCC(C1)N2c1ccc(C(F)(F)F)cn1` (stereo not drawn) [2-237], the “rate of killed adults” value was determined as 100%. `FC(F)COc1cc(C(F)(F)F)ccc1OC1CC2CCC(C1)N2c1ccc(C(F)(F)F)cn1` (stereo not drawn) [2-246]: the “rate of killed adults” value is 100%. The figure for `CCCOc1cc(C(F)(F)F)ccc1OC1CC2CCC(C1)N2c1ccc(Br)cn1` (stereo not drawn) [2-86] is 100%; for `CCC(O)c1cc(C(F)(F)F)ccc1OC1CCN(c2ccc(C(F)(F)F)cn2)CC1` (stereo not drawn) [1-67] it is 100%. The figure for `CCCC(=O)c1cc(C(F)(F)F)ccc1OC1C2CCC1CN(c1ccc(C(F)(F)F)cn1)C2` (stereo not drawn) [5-240] is 100%. In the case of `FC(F)(F)c1ccc(N2C3CCC2CC(Oc2ccc(C(F)(F)F)cc2OC2CCOC2)C3)nc1` (stereo not drawn) [2-179] it was 100%. Take `COCOc1cc(C(F)(F)F)ccc1OC1CC2CCC(C1)N2c1ccc(C(F)(F)F)cn1` (stereo not drawn) [2-102, 3α-[2-methoxymethoxy-4-(trifluoromethyl)phenoxy]-8-[5-(trifluoromethyl)-2-pyridyl]-8-azabicyclo[3.2.1]octane]: the “rate of killed adults” value is recorded as 100%. Regarding `COCCOc1cc(C(F)(F)F)ccc1OC1CCN(c2ccc(C(F)(F)F)cn2)CC1` [1-115], the “rate of killed adults” value was determined as 100%. Turning to `FC(F)(F)c1ccc(N2C3CCC2CC(Oc2ccc(C(F)(F)F)cc2OCCCl)C3)nc1` (stereo not drawn) [2-138], the “rate of killed adults” value stood at 100%.

`COCCc1cc(C(F)(F)F)ccc1O[C@@H]1[C@@H]2CC[C@H]1CN(c1ccc(C(F)(F)F)cn1)C2` [5-246]: the “rate of killed adults” value is recorded as 100%. The figure for `CC(C)COc1cc(C(F)(F)F)ccc1OC1CC2CCC(C1)N2c1ccc(C(F)(F)F)cn1` (stereo not drawn) [2-98] is 100%; for `FC(F)(F)c1ccc(N2CC3CCC(C2)C3Oc2ccc(C(F)(F)F)cc2OCC2CCCO2)nc1` (stereo not drawn) [5-214] it is 100%; for `FC(F)(F)c1ccc(N2CCC(Oc3ccc(Cl)cc3)CC2)nc1` [1-10] it is 100%.

As for `C=CC(C)OC(=O)c1cc(C(F)(F)F)ccc1OC1CC2CCC(C1)N2c1ccc(C(F)(F)F)cn1` (stereo not drawn) [2-235], the “rate of killed adults” value is 100%. The figure for `COCCOc1cc(C(F)(F)F)ccc1OC1CC2CCC(C1)N2c1ccc(C(F)(F)F)cn1` (stereo not drawn) [2-112] is 100%; for `CCCOC(=O)c1cc(C(F)(F)F)ccc1O[C@@H]1[C@@H]2CC[C@H]1CN(c1ccc(C(F)(F)F)cn1)C2` [5-244] it is 100%; for `CCCCC(O)c1cc(C(F)(F)F)ccc1OC1C2CCC1CN(c1ccc(C(F)(F)F)cn1)C2` (stereo not drawn) [5-238] it is 100%. In the case of `CCNc1cc(C(F)(F)F)ccc1OC1CCN(c2ccc(C(F)(F)F)cn2)CC1` [1-172] it was 100%; in that of `CCCN(C)c1cc(C(F)(F)F)ccc1OC1CC2CCC(C1)N2c1ccc(C(F)(F)F)cn1` (stereo not drawn) [2-161], 100%; in that of `CS(=O)(=O)Oc1cc(C(F)(F)F)ccc1OC1C2CCC1CN(c1ccc(C(F)(F)F)cn1)C2` (stereo not drawn) [5-161], 100%.

As to `FC(F)(F)c1ccc(N2CC3CCC(C2)C3Oc2ccc(C(F)(F)F)cc2OCCCl)nc1` (stereo not drawn) [5-147], the “rate of killed adults” value is listed as 100%.

As to `[O-][S+](c1ccc(OC2CCN(c3ccc(C(F)(F)F)cn3)CC2)cc1)C(F)(F)F` (stereo not drawn) [1-150], the “rate of killed adults” value is reported as 100%. The figure for `CC(C)OC(=O)c1cc(C(F)(F)F)ccc1OC1CC2CCC(C1)N2c1ccc(C(F)(F)F)cn1` (stereo not drawn) [2-196] is 100%; for `CCCOc1cc(C(F)(F)F)cc(Cl)c1OC1CCN(c2ccc(C(F)(F)F)cn2)CC1` [1-18] it is 100%; for `FC(F)(F)c1ccc(N2CCC(Oc3c(Cl)cc(C(F)(F)F)cc3Cl)CC2)nc1` [1-16] it is 100%. For the molecule `FC(F)(F)c1ccc(N2CCC(Oc3cccc(C(F)(F)F)c3)CC2)nc1` [1-76], the “rate of killed adults” value amounted to 100%.

As to `C=CCc1cc(C(F)(F)F)ccc1O[C@@H]1[C@@H]2CC[C@H]1CN(c1ccc(C(F)(F)F)cn1)C2` [5-75], the “rate of killed adults” value came to 100%. In the case of `CCOC(C)COc1cc(C(F)(F)F)ccc1OC1CC2CCC(C1)N2c1ccc(C(F)(F)F)cn1` (stereo not drawn) [2-175] it was 100%; in that of `FC(F)(F)c1ccc(N2CCC(Oc3ccc(C(F)(F)F)cc3OCCBr)CC2)nc1` [1-139], 100%; in that of `CCCN(CCC)c1cc(C(F)(F)F)ccc1OC1CCN(c2ccc(C(F)(F)F)cn2)CC1` [1-174], 100%. In the case of `CCCCOc1cc(C(F)(F)F)ccc1OC1CC2CCC(C1)N2c1ccc(C(F)(F)F)cn1` (stereo not drawn) [2-97] it was 100%.

For `N#Cc1ccc(OC2CCN(c3ccc(C(F)(F)F)cn3)CC2)cc1` [1-29], the “rate of killed adults” value came out at 100%. In the case of `COCOCc1cc(O[C@@H]2[C@@H]3CC[C@H]2CN(c2ccc(C(F)(F)F)cn2)C3)ccc1C(F)(F)F` [5-70] it was 100%; in that of `CCN(C)C(=O)c1cc(C(F)(F)F)ccc1O[C@@H]1[C@@H]2CC[C@H]1CN(c1ccc(C(F)(F)F)cn1)C2` [5-249], 100%. The figure for `CC(CCl)OC(=O)c1cc(C(F)(F)F)ccc1OC1CC2CCC(C1)N2c1ccc(C(F)(F)F)cn1` (stereo not drawn) [2-233] is 100%; for `CN(C)C(=O)Sc1cc(C(F)(F)F)ccc1OC1CC2CCC(C1)N2c1ccc(C(F)(F)F)cn1` (stereo not drawn) [2-157] it is 100%. In the case of `COCOCCOc1cc(C(F)(F)F)ccc1OC1CCN(c2ccc(C(F)(F)F)cn2)CC1` [1-117] it was 100%. As to `FC(F)(F)c1ccc(OC2CCN(c3ccc(C(F)(F)F)cn3)C2)cc1` (stereo not drawn) [8-63, 3-[4-(trifluoromethyl)phenoxy]-1-[5-(trifluoromethyl)-2-pyridy]pyrrolidine], the “rate of killed adults” value stood at 100%.
